The source of these data is the METLIN SMRT retention time set (Domingo-Almenara et al. 2019).

This data set can be described thus: gradient 5% acetonitrile 3 min, to 50% in 2 min, to 85% in 15 min, held 3 min, 100 µL/min. Conditions: column: Zorbax Extend-C18 2.1 x 50 mm; eluents: water / acetonitrile, 0.1% formic acid. The gist of the method:
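The mobile phases were water and acetonitrile, each with 0.1% formic acid, pumped at 100 μL/min through a Zorbax Extend-C18 column (2.1 × 50 mm, 1.8 μm). Pure standards were injected as mixtures of ~100 molecules and detected by a quadrupole time-of-flight mass spectrometer in positive and negative ionization mode. Retention time came from computationally picked adduct peaks, each inspected by hand.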
`C[C@H]([C@H](C)N1CC(=O)NC(=O)C1)N1CC(=O)NC(=O)C1`: the RP-LC retention time was determined as 610 s.
For the compound `COc1cc([C@@H]2c3cc4c(cc3[C@H](O)[C@@H](CO)[C@@H]2C(=O)NCc2cccc(C(F)(F)F)c2)OCO4)cc(OC)c1OC`, the RP-LC retention time amounted to 783 s.
Take `Cc1cccc(NC(=O)CN2C(=O)C3CCCCN3c3ccc(S(=O)(=O)N4CCCCC4)cc32)c1` (centres undefined): the RP-LC retention time amounted to 1080 s.
Regarding `O=C(N1CCC[C@H]1c1nc(-c2ccccc2)n[nH]1)C1(c2ccccc2)CC1`, the RP-LC retention time stood at 785 s.
For `CCNC(=O)C1CCCN(c2nc3ncn(CC(=O)Nc4cc(Cl)ccc4C)c(=O)c3s2)C1` (centres undefined) the value was 741 s.
The value for `CNC(=O)c1ccc(C)c(-n2c(C)cc(OCc3ccc(F)cc3F)c(Br)c2=O)c1` was 818 s; that for `CCC(C)NC(=O)c1cn(-c2cc(-c3nc(C4CC4)no3)ccn2)cn1` (centres undefined) was 840 s; that for `O=C(Nc1ccc2c(c1)OCCO2)C1CCCN(c2ncc(-c3cccc(F)c3)cn2)C1` (centres undefined) was 1040 s.
For `Cc1c(Cl)cccc1NC(=O)Cn1c(C)nc2c(sc3nc(-c4ccccc4)ccc32)c1=O` the value was 1210 s.
Compound `COc1cccc(C(=O)N2CCc3nc[nH]c3C2)c1OC` returned an RP-LC retention time of 555 s.
The value for `NC1=NC(c2ccc(Cl)cc2)N(c2ccc(S(N)(=O)=O)cc2)C(N)=N1` (centres undefined) was 629 s; that for `CCc1noc(-c2ccc(-n3cnc(C(=O)NC4CCCCCC4)c3)nc2)n1` was 968 s; that for `CC1(C(=O)NCc2ccc(Cl)cc2)CCCCC(=O)N1` (centres undefined) was 704 s.
The compound `O=C(CC1CCCCC1)NCC(=O)Nc1nc2ccccc2[nH]1` gave an RP-LC retention time of 661 s.
In turn, `O=S(=O)(c1cccc(-c2nnc(-c3ccc(Cl)cc3)o2)c1)N1CCCCC1` came in with an RP-LC retention time of 1160 s.
For `Cn1ncc(Cl)c1C(=O)N1CCCC1c1ccc(F)cc1` (centres undefined) the value was 825 s; for `O=C(COc1cc(O)c2c(=O)c3ccccc3oc2c1)c1ccc(Cl)cc1`, 1230 s.
For `CCCNC(=O)C1CCCN(c2ccc(SCC(=O)Nc3ccc(Cl)cc3F)nn2)C1` (centres undefined) the value was 733 s; for `Cc1nn(Cc2ccc(C(=O)NCC3CC3)cc2)c(C)c1S(=O)(=O)N1CCC(C)CC1`, 888 s.
As for `CC(C)Cc1ccc(S(=O)(=O)N2C[C@@H](F)C[C@H]2C(=O)N2CCCCC2)cc1`, the RP-LC retention time came to 983 s.
`CN(C)c1ncncc1N1CCC(C(=O)N2CCCC2)CC1`: the RP-LC retention time worked out at 567 s.
The value for `Cc1ccc(NC(=O)N2CCC(c3nc(C(=O)N(C)C)c(C)o3)CC2)cc1Cl` was 799 s; that for `O=C(Nc1ccc2c(c1)OCCO2)N1CC2(CCCCC2)CC1COc1ccncc1` (centres undefined) was 604 s; that for `COc1ccc(NC(=O)c2c(F)cccc2F)c([N+](=O)[O-])c1` was 831 s.
The value for `CC(C)C(=O)NCc1csc(C2CCN(C(=O)C3(c4ccccc4)CC3)CC2)n1` was 740 s.
The value for `CN1CCN(S(=O)(=O)c2c[nH]c(=O)[nH]c2=O)CC1` was 720 s; that for `CCN(CC)C(=O)Cn1nc2cc(-c3ccc(OC)cc3)nc(C)n2c1=O` was 842 s; that for `CN1C(=O)c2ccccc2C(C(=O)NCc2ccccn2)C1c1cccs1` (centres undefined) was 607 s.
Compound `CC12C(=O)OC(=O)C1(C)C1CCC2O1` (centres undefined) came in with an RP-LC retention time of 813 s.
For `COC1CCC12CCN(C(=O)c1ccoc1)CC2` (centres undefined) the value was 723 s; for `O=C(NC1CCCc2ccccc21)C1CCCN(c2ccnc(-c3ccc(F)cc3)n2)C1` (centres undefined), 734 s.
The value for `CC(C)c1ccc(Nc2c(-c3ccc(N(C)C)cc3)nc3ncccn23)cc1` was 820 s.
The value for `CCCN1CCN(CCCNC(=O)C2CCCN(S(=O)(=O)c3ccc4c(ccn4C)c3)C2)CC1` (centres undefined) was 598 s.
`COc1ccc(-c2c(C(=O)Nc3ccccc3OC)nc3ccccn23)cc1` displayed an RP-LC retention time of 991 s.
The value for `CCCNc1cc(N2CCC(CCC(=O)NCc3ccccc3C)CC2)ncn1` was 702 s; that for `O=C(Cn1cccc1-c1nc(-c2ccc3c(c2)OCO3)no1)Nc1ccc(Cl)cc1F` was 738 s; that for `O=C(Nc1ccc(-n2cnnn2)cc1)c1ccc(N2CCCC2)nn1` was 620 s.
For `COC(=O)c1ccc(C(=O)NCC2CCN(Cc3ccccc3SC)CC2)cc1` the value was 567 s; for `Cn1c(=O)c(N2CCN(S(=O)(=O)c3ccc(Cl)cc3)CC2)nc2ccncc21`, 674 s; for `COc1ccc(NC(=O)C2CCCN(c3ncnc4c3nc3n4CCCCC3)C2)cc1Cl` (centres undefined), 828 s.
For `O=C(Cc1csc2nc(-c3ccccc3)cn12)N1CCN(c2ccccc2)CC1` the value was 820 s; for `O=C(Cn1ccc2ccn(Cc3ccccc3)c2c1=O)NCc1ccccc1Cl`, 888 s; for `Cc1ccc(NC(=O)C2(C)Oc3cccnc3N(C)C2=O)cc1` (centres undefined), 845 s.
`Cc1ccc(NC(=O)C2CCCN(C(=O)C3Sc4ccccc4NC3=O)C2)cc1C` (centres undefined) returned an RP-LC retention time of 862 s.
For `O=C(COc1ccc(F)cc1)NC1(c2nc(-c3ccncc3)no2)CCCCC1` the value was 934 s; for `CCN(CC)C(=O)c1ccc(O)c(OC)c1`, 718 s; for `CCCn1cc(C(=O)Nc2cccc(F)c2)c(S(=O)(=O)N2CCSCC2)n1`, 1070 s.
The value for `COC(=O)c1c(NCC(C)C)c2cc(F)ccc2[nH]c1=O` was 734 s; that for `N#Cc1ccc(NS(=O)(=O)c2c[nH]c3ncccc23)cc1` was 686 s.
For `O=C(c1ccco1)N1CC(Oc2ccc(-c3nc(-c4ccccc4)no3)cc2)C1` the value was 856 s.
`COc1ccc(Cl)c(Cn2c(NCC3CCCO3)nc3c2c(=O)n(C)c(=O)n3C)c1` (centres undefined) gave an RP-LC retention time of 801 s.
For `Cc1c(Cl)cccc1NC(=O)c1cccc([N+](=O)[O-])c1O` the value was 975 s.
For `COC(=O)c1c(NCc2ccco2)c2cccc(Cl)c2[nH]c1=O` the value was 740 s; for `COC(=O)c1cccc(COC(=O)C2=CN(Cc3ccccc3)S(=O)(=O)N=C2C)c1`, 1060 s; for `COc1ccc(C(=O)NC2CCN(c3cc(C)cc(C)c3)C2=O)cc1` (centres undefined), 878 s.
For `CCCC(NC(=O)c1ccc(Cl)cc1)C(=O)Nc1nc2ccccc2[nH]1` (centres undefined), the RP-LC retention time was 742 s.
For `Cc1ccc(S(=O)(=O)N2CCC(n3cnc4c(C)cccc4c3=O)CC2)c(C)c1` the value was 1060 s.
For `CCc1onc(C)c1C1CCCN1C(=O)Nc1ccc(C)c(F)c1` (centres undefined) the value was 879 s; for `O=C(CN1C(=O)c2cccc3cccc(c23)C1=O)NCC1CCCO1` (centres undefined), 651 s.
For `CCc1nnsc1C(=O)Nc1ccc(S(=O)(=O)Nc2onc(C)c2C)cc1` the value was 759 s; for `CC(=O)NC(Cc1c[nH]c2ccccc12)C(=O)O` (centres undefined), 605 s.
The compound `O=C(Cn1cccc(S(=O)(=O)N2CCOCC2)c1=O)N1CCc2ccccc21` gave an RP-LC retention time of 667 s.
The value for `COc1ccc(OC)c(NC(=O)N(C)CCc2noc(COc3ccc(F)cc3)n2)c1` was 919 s; that for `O=C(NC1CC1)c1ccc(OCC2CCN(C(=O)C3(c4ccccc4)CC3)CC2)cc1` was 859 s; that for `O=C(C1CCOC1)N1CCC(N(Cc2ccccc2)C2CCOCC2)CC1` (centres undefined) was 572 s.
The value for `CCOc1ccc(N2C(=O)C3N=NN(Cc4nc(-c5ccc(OC(C)C)cc5)no4)C3C2=O)cc1` (centres undefined) was 1120 s; that for `CC(C)c1ccc(NC(=O)C2CCCN(c3ccc(=O)n(-c4cccc(Cl)c4)n3)C2)cc1` (centres undefined) was 1120 s; that for `Cc1cccc(-c2noc(C3CCCN3S(=O)(=O)c3cccc(Cl)c3C)n2)c1` (centres undefined) was 1310 s.
For `CCCN1CCN(c2cc(C(=O)O)c3cc(NS(=O)(=O)c4ccc(OCC)cc4)ccc3n2)CC1` the value was 624 s; for `O=C(NC1CCCC1)C1c2ccccc2CC(=O)N1Cc1ccccc1` (centres undefined), 856 s; for `O=C1COc2cc(Cl)ccc2N1Cc1nc(-c2ccc(OC(F)(F)F)cc2)no1`, 1220 s.
On to `CC(C)CN(CC(=O)N(Cc1ccco1)CC1CCCO1)C(=O)c1ccc(F)cc1` (centres undefined), for which the RP-LC retention time came to 990 s.
The value for `CC1CCCN(c2nn(CC(=O)Nc3ccccc3F)c(=O)c3ccccc23)C1` (centres undefined) was 1140 s; that for `CCc1ccc(NC(=O)Nc2cccc(-c3nnc4n3CCCC4)c2)cc1` was 736 s; that for `CCOC(=O)C1=C(C)NC(=O)NC1c1cn(-c2ccccc2)nc1-c1ccc(OC)cc1` (centres undefined) was 842 s.
For `Cc1ccc2c(c1)N(Cc1ccccc1)N=C(C(=O)N1CCC(C)CC1)S2(=O)=O` the value was 1080 s; for `Cc1cc(-c2nnc(NC(=O)c3ccc4c(c3)OCCO4)o2)c(C)o1`, 766 s.
For `CN1CCN(c2cc(C(=O)O)c3cc(F)ccc3n2)CC1` the value was 551 s; for `Cc1noc2nc(CCC(=O)NCCCN3CCc4ccccc4C3)nc(N3CCCCCC3)c12`, 695 s.
